Measurements from US9757375B2, “Compounds that inhibit human DNA ligases and methods of treating cancer” (University of Maryland, Baltimore, priority 2007, dated 2017).
Read-outs that look alike come from different tables or passages of the source.

Experiments:
T4 DNA ligase = biological target: T1, T4 DNA ligase (Enterobacteria phage T4, UniProt P00970); assay: High-throughput fluorescence-based DNA joining assay, non-specific inhibitor control; format: biochemical, bacteriophage T4
T1 construct: purchased NEB
T1 sequence (P00970 1-487): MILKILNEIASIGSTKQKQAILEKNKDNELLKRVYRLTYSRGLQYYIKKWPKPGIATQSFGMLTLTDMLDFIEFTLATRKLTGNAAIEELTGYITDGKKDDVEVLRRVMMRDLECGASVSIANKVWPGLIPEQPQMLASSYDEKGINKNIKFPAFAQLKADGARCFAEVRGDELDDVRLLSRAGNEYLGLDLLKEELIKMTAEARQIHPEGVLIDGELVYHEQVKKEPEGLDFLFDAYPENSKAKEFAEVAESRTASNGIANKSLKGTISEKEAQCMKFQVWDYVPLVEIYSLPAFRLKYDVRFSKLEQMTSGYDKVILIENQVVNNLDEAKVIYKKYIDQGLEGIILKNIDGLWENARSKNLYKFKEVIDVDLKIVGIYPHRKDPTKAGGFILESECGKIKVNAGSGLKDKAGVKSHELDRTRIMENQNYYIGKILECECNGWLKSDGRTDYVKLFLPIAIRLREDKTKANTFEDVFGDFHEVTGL
How it was run: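 This counter-screen used a FRET-based DNA joining assay. Duplicate reactions held 10 pmol nicked DNA substrate and 10 units T4 DNA ligase, with or without 100 μmol/L compound. T4 ligase lacks the DNA-binding domain targeted in silico, so compounds inhibiting it were flagged as non-specific, likely DNA-binding.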

DNA = DNA binding by displacement of ethidium bromide from DNA; conditions: EtBr replacement assay; 192 at 0, 50, 100 μM
Procedure: Candidate ligase inhibitors identified by CADD were assayed for their ability to inhibit hLigI and T4 DNA ligase using a high-throughput, fluorescence energy transfer-based DNA joining assay (22). Duplicate reactions (30 μL) containing 10 pmol of nicked DNA substrate and either 0.25 pmol of hLigI or 10 units of T4 DNA ligase were incubated in the presence or absence of 100 μmol/L of the putative inhibitor. DNA binding by the candidate DNA ligase inhibitors was measured by displacement of ethidium bromide from DNA as previously described (30).

HCT116 cells [1] = assay: Cell proliferation screen (SYBR Green, Biomek FX); format: cell-based, human
How it was run: (§1)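 HCT116 and MCF10A cells, 150–300 per well, exposed 1 day after plating to compounds at 50 μM final (15 μM or 50 μM in the parallel screen) for 3 days at 37 °C, 5% CO2. Cells lysed overnight with 1.2% Igepal CA-630 plus SYBR Green I (1:1000), fluorescence read at 485/520 nm. Growth inhibition expressed relative to 0.5% DMSO controls.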

MCF10A cells = assay: Cell proliferation screen (SYBR Green, Biomek FX); format: cell-based, human; conditions: for inhibition at 50 µM: Homo sapiens, MCF-10A
How it was run: as §1

HCT116 and MCF10A cells [2] = assay: Cell proliferation screen, result stated for one or both cell lines; format: cell-based, human; conditions: in vivo cell culture screen
Procedure: The ability of the compounds identified by CADD to inhibit proliferation of normal mammary epithelial MCF10A cells and colon carcinoma HCT116 cells was determined using a Biomek FX Laboratory Automation Workstation (Beckman Coulter, Inc., Fullerton, Calif.). On day 0, 20 μl of complete medium containing the appropriate number of cells (150-300) was plated per well of a 384-well tissue plate (Fisher Scientific, Hampton, N.H.) and incubated overnight at 37° C. with 5% CO2 and 90% humidity. Next day, day 1, compounds were prepared by serial dilution with complete medium to yield the concentration 100 μM, and 20 μl was added to each well containing 20 μl of medium and cells yielding the final concentration 50 μM in 40 μl volume. Plates were incubated for additional 3 days (days-2-5) until control cells (0.5% DMSO) reached ˜70-80% confluency. On day 6, 40 μl of lysis/detection solution containing 1.2% Igepal CA-630 (Sigma) and a 1:1000 dilution of SYBR Green I nucleic acid stain (Molecular Probes, Eugene, Oreg.) was added to each well. Following an overnight incubation at 37° C., total fluorescence was measured using a Fluorostar Galaxy plate reader with a 485 nm excitation filter and 520 nm emission filter set (BMG Labtech, Inc., Durham, N.C.). Data was exported to a custom program that determined growth inhibition by dividing each individual fluorescence value by the average of fluorescence values obtained with cells treated with DMSO alone.
The 192 human DNA ligase inhibitors were screened in parallel for effects on proliferation and the ability to potentiate the effects of several DNA damaging agents using two cell human lines, a colon cancer line HCT116 and a normal breast epithelial cell line MCF10A using a Biomek FX Laboratory Automation Workstation as described (23). The DNA damaging agents used, methyl methanesulfonate (MMS), camptothecin, cis-platinum, 3 aminobenzamide and ionizing radiation, are representatives of classes of agents used to treat cancer. Briefly, HCT116 and MCF10A cells were plated in 96 well plates such that the cultures were about 80% confluent after 5 days incubation. Compounds were added to the cultures at either 15 μM or 50 μM 1 day after plating. After incubation for 3 days, cell lysed in a solution containing 1.2% Igepal CA-630 and SYBR green that stains DNA (1:1000, Molecular Probes, Eugene, Oreg.). Subsequently, fluorescence was measured per well. The studies with DNA damaging agents were performed as follows. […] For ionizing radiation, cells were pre-incubated with the compounds at 50 μM for 1 hour prior to exposure to 2 gray of ionizing radiation. Cultures were incubated for 3 days and then treated as above.

HCT116 cells [3] = assay: Screen for potentiation of DNA damaging agents (MMS, camptothecin, cis-platinum, 3 aminobenzamide, ionizing radiation); format: cell-based, human; conditions: 1 = no sensitization
[4] = tested on: MCF7, HCT116, HeLa, and MCF10A cells; assay: Survival assay on cell panel (FIG. 9); format: cell-based, human
How it was run: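 Clonogenic survival: cells grown with or without ligase inhibitor (3 μmol/L L67 or 20 μmol/L L189 in combination arms), plus MMS (0-50 μM) or Cs-137 irradiation (0-2.5 Gy) where indicated. Colonies stained with crystal violet and counted after two weeks.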

HCT116 and MCF10A cells [5] = assay: Cell proliferation screen, result stated for one or both cell lines; format: cell-based; conditions: Homo sapiens, read-out: IC50 of inhibition of proliferation
[6] = 50 μM, percentage of values obtained with DMSO alone

In the case of `Cc1c(Br)cc(NCC(=O)N/N=C\c2cc([N+](=O)[O-])ccc2O)cc1Br` [Compound 67], the inhibition at 100 µM (T4 DNA ligase; 100 μM, read-out: In vitro % inhib T4 100) is reported as 0%, the “inhibition of T4 DNA ligase, in words” value (T4 DNA ligase; in vitro screen, 100 μmol/L) is reported as “inhibit hLigI but not T4 DNA ligase” and the inhibition at 100 µM (T4 DNA ligase; read-out: % activity Inhibition LigT4 100 uM) is reported as 0%. The “DNA binding of compound (effect on DNA binding by ethidium bromide)” value (DNA) was “had no effect on DNA binding by ethidium bromide”, the “In vitro growth inhb HCT116 % Inhb at 50 (μM)” value (HCT116 cells [1]; 50 μM) was 70% and the “Growth_Inh % (50 μM) HCT116” value (HCT116 cells [1]; [6]) was 70%. For the same compound, the inhibition at 50 µM (HCT116 cells [1]; Homo sapiens, HCT-116, read-out: % growth inhibition HCT116 50 uM) was 70%, the “Growth_Inh % (50 μM) MCF10A” value (MCF10A cells; [6]) was 70% and the inhibition at 50 µM (MCF10A cells; 50 μM, read-out: In vivo growth inhb MCF10A % Inhb at 50) was 70%. The inhibition at 50 µM (MCF10A cells; read-out: % growth inhibition MCF10A 50 uM) was 70%, the “inhibition of cell proliferation, in words” value (HCT116 and MCF10A cells [2]) was “inhibited cell proliferation” and the “IC50 ratios of non- and 3-AB treated cells HCT116” value (HCT116 cells [3]; compound alone vs combination with 3-AB (2 mM)) was 1. The “MMS: Ratios of IC50 HCT116” value (HCT116 cells [3]; compound alone vs combination with MMS (100 μM)) was 1.4, the EC50 ([4]; Homo sapiens, cell line not stated) was about 10 µM and the “potentiation of the cytotoxic effects of DNA-damaging agents” value ([4]; L67 3 μmol/L with MMS (MCF7 vs MCF10A), L189 20 μmol/L with ionizing radiation (HCT116 vs MCF10A), FIG. 9B) was “potentiate the cytotoxic effects of DNA-damaging agents”. For the same compound, the “cytotoxicity (cell survival)” value ([4]; MCF7, HCT116, HeLa, MCF10A, FIG. 9A) was “cytotoxic” and the IC50 (HCT116 and MCF10A cells [5]) was under 20 µM.
